The results in this text go back to patent US8455665B2, “3-phenoxymethylpyrrolidine compounds” (Theravance, Inc., priority 2009, dated 2013).

Design in all cases: expressed in transfected cells; host or cells: HEK-293
The target in experiment [1] is T1, SERT (Homo sapiens, UniProt P31645). The experiment is described as follows: hSERT membrane radioligand binding assay (3H-citalopram). To be noted: hSERT membranes (HEK-293), 1.0 nM 3H-citalopram; read-out: SERT pKi (converted). The gist of the method: (§1)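 HEK-293 membranes stably expressing hNET or hSERT; inhibition of ³H-nisoxetine (hNET) or ³H-citalopram (hSERT) binding in 50 mM Tris-HCl, 120 mM NaCl, 5 mM KCl, pH 7.4, 60 min at 22 °C. Filtration, scintillation counting; nonspecific with 1 μM desipramine (NET) or 1 μM duloxetine (SERT). pKi via Cheng-Prusoff from IC50 and radioligand Kd.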

The target in experiment [2] is T2, NET (Homo sapiens, UniProt P23975). Description: hNET membrane radioligand binding assay (3H-nisoxetine). To be noted: hNET membranes (HEK-293), 1.0 nM 3H-nisoxetine; read-out: NET pKi (converted). The procedure, abridged:
as §1

Experiment [3] addresses T1, SERT. The experiment is described as follows: hSERT neurotransmitter uptake assay (3H-5-HT). The class given is cell-based. To be noted: serotonin reuptake inhibition, HEK-293 hSERT cells, 3H-5-HT (no asterisk); read-out: SERT pIC50 (converted). The method, then: (§2) Neurotransmitter uptake assays were used to measure inhibition of ^3H-serotonin (^3H-5-HT), ^3H-norepinephrine (^3H-NE), and ^3H-dopamine (^3H-DA) uptake into cells expressing the respective transporter (hSERT, hNET or hDAT) in order to determine the pIC50 values of test compounds at the transporters.
(§3) HEK-293 derived cell lines stably-transfected with hSERT, hNET, or hDAT, respectively, were grown in DMEM medium supplemented with 10% dialyzed FBS (for hSERT) or FBS (for hNET and hDAT), 100 μg/ml penicillin, 100 μg/ml streptomycin, 2 mM L-glutamine and 250 μg/ml of the aminoglycoside antibiotic G418 (for hSERT and hNET) or 800 ug/ml (for hDAT), in a 5% CO2 humidified incubator at 37° C. When cultures reached 80% confluence, the cells were washed thoroughly in PBS (without Ca^2+ and Mg^2+) and lifted with 5 mM EDTA in PBS. Cells were harvested by centrifugation at 1100 rpm for 5 minutes, washed once by resuspension in PBS, then centrifuged. The supernatant was discarded and the cell pellet resuspended, by gentle trituration, in room temperature Krebs-Ringer bicarbonate buffer containing HEPES (10 mM), CaCl2 (2.2 mM), ascorbic acid (200 μM) and pargyline (200 μM), pH 7.4. The final concentration of cells in the cell suspension was 7.5×10^4 cells/ml, 1.25×10^5 cells/ml, and 5.0×10^4 cells/ml for SERT, NET, and DAT cell lines, respectively.
(§4) Neurotransmitter uptake assays were performed in a 96-well assay plate in a total volume of 400 μl assay buffer (Krebs-Ringer bicarbonate buffer containing HEPES (10 mM), CaCl2 (2.2 mM), ascorbic acid (200 μM) and pargyline (200 μM), pH 7.4) with 1.5×10^4 and 2.5×10^4 cells, for SERT, NET, and DAT, respectively. […] Stock solutions (10 mM in DMSO) of test compound were prepared and serial dilutions prepared using 50 mM Tris-HCl, 120 mM NaCl, 5 mM KCl, pH 7.4, 0.1% BSA, 400 μM ascorbic acid. Test compounds were incubated for 30 minutes at 37° C. with the respective cells, prior to addition of radiolabeled neurotransmitter, ^3H-5-HT (20 nM final concentration), ^3H-NE (50 nM final concentration) or ^3H-DA (100 nM final concentration). Non-specific neurotransmitter uptake was determined in the presence of 2.5 μM duloxetine, 2.5 μM desipramine, or 10 uM GBR-12909 (each in Dilution Buffer) for the hSERT, hNET, or hDAT assays, respectively.
(§5) Following a 10 minute incubation, at 37° C., with radioligand, the cells were harvested by rapid filtration over a 96-well UniFilter GF/B plate, pretreated with 1% BSA, and washed 6 times with 650 μl wash buffer (ice cold PBS). Plates were dried overnight at 37° C., ˜45 μl of MicroScint™-20 (Perkin Elmer) added and incorporated radioactivity quantitated via liquid scintillation spectroscopy Inhibition curves were analyzed using GraphPad Prism Software package (GraphPad Software, Inc., San Diego, Calif.). IC50 values were generated from concentration response curves using the Sigmoidal Dose Response (variable slope) algorithm in Prism GraphPad.

Experiment [4] concerns the target T2, NET. Description: hNET neurotransmitter uptake assay (3H-NE). The class given is cell-based. To be noted: norepinephrine reuptake inhibition, HEK-293 hNET cells, 3H-NE (no asterisk); read-out: NET pIC50 (converted). The method, then: as §2, §3, §4, §5

T2 sequence (P23975 whole entry): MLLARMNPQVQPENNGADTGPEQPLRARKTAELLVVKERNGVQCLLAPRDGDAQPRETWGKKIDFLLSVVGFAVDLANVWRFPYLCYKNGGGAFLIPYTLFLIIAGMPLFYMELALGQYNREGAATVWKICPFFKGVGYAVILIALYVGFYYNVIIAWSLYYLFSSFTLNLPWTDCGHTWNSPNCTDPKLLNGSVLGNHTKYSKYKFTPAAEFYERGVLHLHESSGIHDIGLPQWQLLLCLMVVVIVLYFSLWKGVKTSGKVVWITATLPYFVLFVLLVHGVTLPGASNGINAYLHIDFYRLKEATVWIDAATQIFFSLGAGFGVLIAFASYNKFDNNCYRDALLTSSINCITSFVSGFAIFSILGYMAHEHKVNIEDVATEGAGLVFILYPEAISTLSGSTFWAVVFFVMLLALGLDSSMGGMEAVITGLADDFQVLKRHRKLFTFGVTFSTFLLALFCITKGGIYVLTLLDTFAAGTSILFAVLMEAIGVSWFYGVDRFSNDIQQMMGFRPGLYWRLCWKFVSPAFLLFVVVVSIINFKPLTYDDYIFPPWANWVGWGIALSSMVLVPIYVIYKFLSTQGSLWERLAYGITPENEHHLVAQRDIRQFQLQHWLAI
T1 sequence (P31645 whole entry): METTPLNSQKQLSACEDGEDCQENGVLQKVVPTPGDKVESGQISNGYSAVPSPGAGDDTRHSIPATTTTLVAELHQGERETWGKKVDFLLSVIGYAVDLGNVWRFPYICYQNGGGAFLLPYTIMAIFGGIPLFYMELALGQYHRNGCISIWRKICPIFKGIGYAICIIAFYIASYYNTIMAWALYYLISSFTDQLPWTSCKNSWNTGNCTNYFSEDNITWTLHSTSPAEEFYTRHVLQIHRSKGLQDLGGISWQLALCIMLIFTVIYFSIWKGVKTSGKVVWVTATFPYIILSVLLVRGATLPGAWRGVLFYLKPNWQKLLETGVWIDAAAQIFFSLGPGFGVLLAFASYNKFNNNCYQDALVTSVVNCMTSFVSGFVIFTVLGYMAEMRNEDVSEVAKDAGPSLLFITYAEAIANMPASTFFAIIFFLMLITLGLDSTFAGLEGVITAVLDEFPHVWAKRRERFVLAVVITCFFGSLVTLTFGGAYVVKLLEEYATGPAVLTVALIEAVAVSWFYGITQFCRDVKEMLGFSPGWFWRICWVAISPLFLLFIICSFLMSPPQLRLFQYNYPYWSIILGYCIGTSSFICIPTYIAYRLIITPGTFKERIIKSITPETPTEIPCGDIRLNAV

With `COC[C@H](Oc1ccc(Cl)cc1Cl)[C@H]1CCNC1` [Example 3, (S)-3-[(R)-1-(2,4-Dichlorophenoxy)-2-methoxyethyl]pyrrolidine], the Ki on SERT [1] and on NET [2] was no more than 10 nM each time. The IC50 on SERT [3] and at NET [4] was no more than 10 nM in each case.

For the compound `Clc1cccc(Cl)c1O[C@@H](C1CCOCC1)[C@H]1CCNC1` [Example 13-24, (S)-3-[(S)-(2,6-Dichlorophenoxy)(tetrahydropyran-4-yl)methyl]pyrrolidine], the Ki at SERT [1] and on NET [2] was no more than 10 nM throughout. The IC50 on SERT [3] and on NET [4] was no more than 10 nM in each case.

Take `COC[C@@H](Oc1cccc(Cl)c1Cl)[C@H]1CCNC1` [Example 4-9, (S)-3-[(S)-1-(2,3-Dichlorophenoxy)-2-methoxyethyl]pyrrolidine]: the Ki on SERT [1] and on NET [2] was no more than 10 nM each time. The IC50 at SERT [3] and on NET [4] was no more than 10 nM in each case.

As for `COC[C@@H](Oc1cccc(Cl)c1C)[C@H]1CCNC1` [Example 4-15, (S)-3-[(S)-1-(3-Chloro-2-methylphenoxy)-2-methoxyethyl]pyrrolidine], the Ki on SERT [1] and at NET [2] was no more than 10 nM throughout. The results for the IC50 on SERT [3] and at NET [4] were no more than 100 nM and no more than 10 nM, respectively.

With `Clc1ccccc1O[C@H](C1CCOCC1)[C@H]1CCNC1` [Example 13-4, (S)-3-[(R)-(2-Chlorophenoxy)(tetrahydropyran-4-yl)methyl]pyrrolidine], the results for the Ki on SERT [1] and at NET [2] were no more than 10 nM and no more than 100 nM, respectively. Also, the IC50 on SERT [3] and on NET [4] was no more than 100 nM throughout.

On to `COC[C@@H](Oc1cccc(F)c1Cl)[C@H]1CCNC1` [Example 4-13, (S)-3-[(S)-1-(2-Chloro-3-fluorophenoxy)-2-methoxyethyl]pyrrolidine], for which the Ki on SERT [1] and on NET [2] was no more than 10 nM in each case. Also, the IC50 on SERT [3] and on NET [4] was no more than 100 nM throughout.

In the case of `COC[C@H](Oc1ccc(Cl)cc1C)[C@H]1CCNC1` [Example 4-25, (S)-3-[(R)-1-(4-Chloro-2-methylphenoxy)-2-methoxyethyl]pyrrolidine], the Ki on SERT [1] and on NET [2] was no more than 10 nM each time. Besides, the IC50 on SERT [3] and on NET [4] was no more than 10 nM each time.

As to `Clc1cccc(O[C@H](C2CCOCC2)[C@H]2CCNC2)c1Cl` [Example 13-12, (S)-3-[(R)-(2,3-Dichlorophenoxy)(tetrahydropyran-4-yl)methyl]pyrrolidine], the Ki on SERT [1] and at NET [2] was no more than 10 nM each time. Moreover, the IC50 on SERT [3] and on NET [4] was no more than 10 nM each time.

Regarding `Fc1cccc(O[C@@H](C2CCOCC2)[C@H]2CCNC2)c1Cl` [Example 13-14, (S)-3-[(S)-(2-Chloro-3-fluorophenoxy)(tetrahydropyran-4-yl)methyl]pyrrolidine], the Ki at SERT [1] and on NET [2] was no more than 10 nM in each case. The figures for the IC50 on SERT [3] and on NET [4] were no more than 100 nM and no more than 10 nM, respectively.

In the case of `COC[C@H](Oc1cccc(Cl)c1C(F)(F)F)[C@H]1CCNC1` [Example 4-21, (S)-3-[(R)-1-(3-Chloro-2-trifluoromethylphenoxy)-2-methoxyethyl]pyrrolidine], the Ki at SERT [1] and at NET [2] was no more than 10 nM each time. In addition, the IC50 on SERT [3] is no more than 100 nM; on NET [4], no more than 10 nM.

Consider `COC[C@@H](Oc1cccc(Cl)c1C(F)(F)F)[C@H]1CCNC1` [Example 4-20, (S)-3-[(S)-1-(3-Chloro-2-trifluoromethylphenoxy)-2-methoxyethyl]pyrrolidine], for which the Ki at SERT [1] and on NET [2] was no more than 10 nM in each case. Further, the IC50 on SERT [3] was no more than 100 nM; on NET [4], no more than 10 nM.

Consider `COCC(Oc1ccc(Cl)cc1C)C1CCNC1` (centres unmarked) [Example 4-26, 3-[1-(4-Chloro-2-methylphenoxy)-2-methoxyethyl]pyrrolidine], for which the Ki at SERT [1] and on NET [2] was no more than 10 nM each time. Besides, the IC50 at SERT [3] was no more than 100 nM; on NET [4] it was no more than 10 nM.

Regarding `COC[C@H](Oc1cccc(Cl)c1C)[C@H]1CCNC1` [Example 4-16, (S)-3-[(R)-1-(3-Chloro-2-methylphenoxy)-2-methoxyethyl]pyrrolidine], the Ki at SERT [1] and at NET [2] was no more than 10 nM throughout. Besides, the IC50 on SERT [3] and at NET [4] was no more than 10 nM throughout.

On to `Clc1ccc(O[C@H](C2CCOCC2)[C@@H]2CCNC2)cc1` [Example 13-9, (R)-3-[(R)-(4-Chlorophenoxy)(tetrahydropyran-4-yl)methyl]pyrrolidine], for which the Ki at SERT [1] and at NET [2] was no more than 10 nM throughout. The IC50 on SERT [3] and on NET [4] was no more than 10 nM throughout.

Consider `Fc1cccc(O[C@H](C2CCOCC2)[C@H]2CCNC2)c1Cl` [Example 13-15, (S)-3-[(R)-(2-Chloro-3-fluorophenoxy)(tetrahydropyran-4-yl)methyl]pyrrolidine], for which the Ki at SERT [1] and at NET [2] was no more than 10 nM each time. Moreover, the IC50 at SERT [3] and at NET [4] was no more than 10 nM in each case.

As for `Clc1ccccc1O[C@@H](C1CCOCC1)[C@H]1CCNC1` [Example 13-1, (S)-3-[(S)-(2-Chlorophenoxy)(tetrahydropyran-4-yl)methyl]pyrrolidine], the values for the Ki on SERT [1] and on NET [2] were no more than 100 nM and no more than 10 nM, respectively. Also, the IC50 on SERT [3] was no more than 1000 nM; at NET [4], no more than 10 nM.

As to `Clc1cccc(O[C@@H](C2CCOCC2)[C@@H]2CCNC2)c1Cl` [Example 12, (R)-3-[(S)-(2,3-Dichlorophenoxy)(tetrahydropyran-4-yl)-methyl]pyrrolidine], the Ki on SERT [1] and at NET [2] was no more than 10 nM throughout. Moreover, the IC50 on SERT [3] and on NET [4] was no more than 10 nM each time.

`Fc1cccc(O[C@H](C2CCOCC2)[C@@H]2CCNC2)c1Cl` [Example 13-16, (R)-3-[(R)-(2-Chloro-3-fluorophenoxy)(tetrahydropyran-4-yl)methyl]pyrrolidine]: the Ki on SERT [1] and on NET [2] was no more than 10 nM each time. Besides, the IC50 is no more than 100 nM at SERT [3] and no more than 10 nM at NET [4].

With `Clc1ccc(O[C@@H](C2CCOCC2)[C@H]2CCNC2)c(Cl)c1` [Example 13-22, (S)-3-[(S)-(2,4-Dichlorophenoxy)(tetrahydropyran-4-yl)methyl]pyrrolidine], the Ki at SERT [1] is no more than 100 nM; at NET [2], no more than 10 nM. The values for the IC50 at SERT [3] and on NET [4] were no more than 100 nM and no more than 10 nM, respectively.

As to `Clc1ccccc1O[C@@H](C1CCOCC1)[C@@H]1CCNC1` [Example 13-3, (R)-3-[(S)-(2-Chlorophenoxy)(tetrahydropyran-4-yl)methyl]pyrrolidine], the Ki on SERT [1] and at NET [2] was no more than 10 nM each time. Besides, the IC50 was no more than 100 nM on SERT [3] and no more than 10 nM at NET [4].
